Reference: patent US7977375B2, “Antibiotic and method of production thereof” (Helmholtz-Zentrum Für Infektionsforschung GmbH, priority 2004, dated 2011)
≈ marks a conversion by molar mass, not a printed value.

Experiments:
[1] = test system: E. faecium VRAR E315; assay: electron microscopy of cell division (FIG. 3); format: cell-based, Enterococcus faecium; settings: 16 μg/ml, 4 hours
Procedure: FIG. 3 a) to c) are electron microscope photographs of E. faecium VRAR E315 after 4 hours growth without antibiotic and d), e) and f) in the presence of 16 μg/ml 7-O-malonyl macrolactin A;
(§1) It is thought that 7-O-malonyl macrolactin A inhibits the division of bacterial cells, which interrupts the proliferation thereof.
The effect of 7-O-malonyl macrolactin A on cell division can also be observed from the electron microscope photographs of Enterococcus faecium (VRAR=vancomycin-resistant, ampicillin-resistant, E315, clinical isolate) shown in FIG. 3. The division planes of the untreated cells after 4 hours growth without antibiotic appear as light regions in FIGS. 3a), b) and c). […] In this example, however, no fully formed cell division planes are evident. The initiation of asymmetrical cell division is indicated by the small black arrowheads.

[2] = test system: E. faecalis VRAS E305; assay: MIC / MBC in liquid culture; format: cell-based, Enterococcus faecalis; settings: E. faecalis VRAS E305
[3] = test system: E. faecium VRAR E315; assay: MIC / MBC in liquid culture; format: cell-based, Enterococcus faecium; settings: E. faecium VRAR E315
[4] = test system: bacteria, especially gram-positive bacteria; assay: bacteriostatic activity, general statement; format: cell-based; settings: very low concentrations
Procedure: 7-O-malonyl macrolactin A is antibiotically active against bacteria, especially gram-positive bacteria and is, in particular, advantageously bacteriostatic at very low concentrations, for example, in the region of 0.05-4 μg/ml. […] The bacteriostatic activity of 7-O-malonyl macrolactin A has already been observed at weak concentrations, as compared to the prior art macrolactin A, even where there has been no direct or immediate bactericidal effect at such low concentrations.

[5] = test system: Burkholderia cepacia SCV; assay: electron microscopy of cell division (FIG. 4); format: cell-based; settings: 128 μg/ml, 4 hours shake culture
Procedure: FIG. 4 a) to c) are electron microscope photographs of Burkholderia cepacia SCV after 4 hours growth without antibiotic and d), e) and f) in the presence of 128 μg/ml 7-O-malonyl macrolactin A;
as §1
The electron microscope photographs moreover elucidate the bacteriostatic effect of 7-O-malonyl macrolactin A against gram-negative bacteria, an example whereof is the cell division of Burkholderia cepacia. Thus, FIGS. 4a, b and c show Burkholderia cepacia SCV (clinical isolate) in a shake culture without the addition of antibiotic ingredients (control) and FIGS. 4d, e and f after 4 hours growth in a shake culture in the presence of 128 μg/ml 7-O-malonyl macrolactin A. In the control culture, white arrowheads point to the cell division planes and the transverse walls in connection therewith. In the case of the gram-negative cells treated with 7-O-malonyl macrolactin A, (FIGS. 4e and f) black arrows indicate the cell division planes and the unnatural protuberances.

[6] = test system: MRSA 2; assay: MIC / MBC in liquid culture; format: cell-based, Staphylococcus aureus; settings: MRSA 2
[7] = test system: Burkholderia cepacia SCV 141; assay: kinetics of growth (FIG. 1F); format: cell-based; settings: B. cepacia SCV 141; 32 μg/ml
From the text: • FIG. 1A y-axis: Log CFU (Colony Forming Units) Cells/ml • x-axis: Time (HRS) • FIG. 1B y-axis: Log CFU (Colony Forming Units) Cells/ml • x-axis: Time (HRS) • FIG. 1C: y-axis: Log CFU (Colony Forming Units) Cells/ml • x-axis: Time (HRS) • FIG. 1D: y-axis: Log CFU (Colony Forming Units) Cells/ml • x-axis: Time (HRS) • FIG. 1E: y-axis: Log CFU (Colony Forming Units) Cells/ml • x-axis: Time (HRS) • FIG. 1F: y-axis: Log CFU (Colony Forming Units) Cells/ml • x-axis: Time (HRS) • FIG. 5A: y-axis: % Inhibition • x-axis Concentration μg/ml • FIG. 5B: y-axis: % Inhibition • x-axis Concentration μg/ml

[8] = test system: S. aureus # (non-methicillin-resistant reference strain); assay: MIC / MBC in liquid culture; format: cell-based, Staphylococcus aureus; settings: S. aureus #
[9] = test system: E. faecium VRAR E315; assay: agar diffusion method, inhibition zone; format: cell-based, Enterococcus faecium; settings: Enterococcus faecium, VRARE315; E. faecium VRAR E315; MH agar, 18 hours at 37° C.; per disk 10 μl crude extract, 50 μg macrolactin, 78 μg erythromycin, 30 μg vancomycin, 10 μg ampicillin
Procedure: The agar diffusion method employing Mueller-Hinton (MH) agar (Difco Laboratories) was used to determine effectiveness against bacteria and yeasts. Sterile paper disks (Schleicher & Schüell, Germany) were seeded with 10 μl crude extract or with a solution of purified macrolactin (final compound concentration on the disk 50 μg) and then placed on the surface of MH-agar plates that had been seeded beforehand with a suspension of overnight culture of the test microorganisms at a concentration of 10^5 cells/ml.

[10] = Staphylococcus aureus, pronounced inhibition of growth, read-out: MBC (minimal bacteriostatic or fungistatic concentration)
[11] = Staphylococcus aureus, read-out: MIC (minimal inhibitory concentration)

CC1CCC/C=C/C=C/C(O)CC(O)C/C=C\C=C\C(OC(=O)CC(=O)O)C/C=C/C=C\C(=O)O1 (centres unmarked) [7-O-malonyl macrolactin A]
effect on cell division, electron microscope [1]: anomalous, asymmetrical cell division is being initiated | MIC (minimal inhibitory concentration) [2]: >128 µg/mL | MBC ([2]; Enterococcus faecalis, VRASE305, read-out: MBC (minimal bacteriostatic or fungistatic concentration)): 0.06 µg/mL (≈ 0.123 µM) | MIC ([2]; Enterococcus faecalis, VRASE305, read-out: MIC (minimal inhibitory concentration)): > 128 µg/mL | MIC (minimal inhibitory concentration) [3]: >128 µg/mL | MBC ([3]; Enterococcus faecium, VRARE315, read-out: MBC (minimal bacteriostatic or fungistatic concentration)): 4 µg/mL (≈ 8.19 µM) | MIC ([3]; Enterococcus faecium, VRARE315, read-out: MIC (minimal inhibitory concentration)): > 128 µg/mL | bacteriostatic concentration [4]: 0.05 to 4 µg/mL | effect on cell division, electron microscope [5]: anomalously sized cells were also evident | MIC (minimal inhibitory concentration) [6]: >128 µg/mL | MBC [6, 10]: 4 µg/mL (≈ 8.19 µM) | MIC [6, 11]: > 128 µg/mL | growth inhibited by a factor [7]: ≤ 10 | MIC (minimal inhibitory concentration) [8]: >128 µg/mL | MBC [8, 10]: 1 µg/mL (≈ 2.05 µM) | MIC [8, 11]: > 128 µg/mL | zone of inhibition at 50 µg/disc [9]: 15 mm
